Counter-ions that a name gives are not always drawn.
molecular target: T1, CDK7/Cyclin H/MAT1 (Homo sapiens, UniProt P50613); assay: CDK kinase activity mobility shift assay (MSA); assay type: biochemical; conditions: not given
T1 construct: made in house; host or cells: insect cell
Procedure: Human CDKs, cyclins and other partner proteins were expressed in insect cell, purified individually, reconstituted and then purified to homogeneity before being used for kinase activity assay.
Kinase activity of CDKs were determined by mobility shift assay (MSA), in which the formation of a phosphorylated fluorescence-labelled peptide in reaction mixture was monitored through capillary electrophoresis in a microfluidic environment. […] The mixtures were incubated at 27° C. for 40 min before being quenched with 4 μl 80 mM EDTA, then read on a LabChip EZ Reader II (Caliper Life Science). IC50 of compound for CDKs was calculated by Prism (GraphPad) using a four-parameter nonlinear curve fit.

T1 sequence (P50613 whole entry): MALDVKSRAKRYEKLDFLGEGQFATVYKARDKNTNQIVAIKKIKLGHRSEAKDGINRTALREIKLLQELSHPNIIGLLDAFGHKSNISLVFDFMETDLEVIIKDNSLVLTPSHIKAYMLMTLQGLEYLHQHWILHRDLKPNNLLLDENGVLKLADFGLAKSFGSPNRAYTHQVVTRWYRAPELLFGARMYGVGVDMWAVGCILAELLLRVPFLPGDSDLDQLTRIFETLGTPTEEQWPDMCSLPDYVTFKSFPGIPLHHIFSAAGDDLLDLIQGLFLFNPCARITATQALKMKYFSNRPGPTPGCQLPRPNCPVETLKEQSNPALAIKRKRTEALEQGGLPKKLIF
T1 sequence (P51946 whole entry partner): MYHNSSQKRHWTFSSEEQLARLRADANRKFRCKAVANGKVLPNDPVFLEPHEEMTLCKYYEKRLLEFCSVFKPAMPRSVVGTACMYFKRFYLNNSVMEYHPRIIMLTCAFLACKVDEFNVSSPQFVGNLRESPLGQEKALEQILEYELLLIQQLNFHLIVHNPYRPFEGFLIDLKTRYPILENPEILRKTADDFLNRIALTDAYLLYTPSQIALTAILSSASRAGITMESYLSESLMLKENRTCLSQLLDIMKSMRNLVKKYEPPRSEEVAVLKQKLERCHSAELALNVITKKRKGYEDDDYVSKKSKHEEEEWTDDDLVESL
T1 sequence (P51948 whole entry partner): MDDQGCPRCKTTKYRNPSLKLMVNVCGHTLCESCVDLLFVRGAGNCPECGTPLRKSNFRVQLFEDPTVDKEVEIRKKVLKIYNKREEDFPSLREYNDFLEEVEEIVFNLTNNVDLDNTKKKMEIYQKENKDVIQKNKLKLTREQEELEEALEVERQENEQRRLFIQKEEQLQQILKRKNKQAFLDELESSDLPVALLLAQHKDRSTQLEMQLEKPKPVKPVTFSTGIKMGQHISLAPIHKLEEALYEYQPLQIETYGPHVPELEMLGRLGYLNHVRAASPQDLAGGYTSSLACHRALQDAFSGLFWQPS

Which IC50 does the source give for `CC(C)n1cnc2c(NCc3ccccc3-n3cccn3)nc(N3CCNCC3)nc21` [Compound I-28, N-(2-(1H-pyrazol-1-yl)benzyl)-9-isopropyl-2-(piperazin-1-yl)-9H-purin-6-amine] here?
The IC50 was less than 100 nM.

same assay, conditions: The CDK may be CDK7; mobility shift assay, 2 mM ATP, 3 nM CDK/Cyclin, 27° C. for 40 min; read-out: IC50 (CDK inhibition)

With `CCN(CC)C1CCN(c2nc(NCc3ccccc3-n3cccn3)c3ncn(C(C)C)c3n2)CC1` [Compound I-20, 2-[4-(diethylamino)-1-piperidyl]-9-isopropyl-N-[(2-pyrazol-1-ylphenyl)methyl]purin-6-amine] as the compound, how does the IC50 read?
Its IC50 is less than 100 nM.

For `CC(C)c1n[nH]c2c(NCc3ccccc3-n3cccn3)nc(NC3CCNCC3)nc12` [II-2, N7-(2-(1H-pyrazol-1-yl)benzyl)-3-isopropyl-N5-(piperidin-4-yl)-1H-pyrazolo[4,3-d]pyrimidine-5,7-diamine], which IC50 is on record?
The IC50 was less than 100 nM.

For `CC(C)n1cnc2c(NCc3ccccc3-n3cccn3)nc(N3CCC(O)(CN(C)C)CC3)nc21` [Compound I-29, 1-(6-((2-(1H-pyrazol-1-yl)benzyl)amino)-9-isopropyl-9H-purin-2-yl)-4-((dimethylamino)methyl)piperidin-4-ol], which IC50 is on record?
The IC50 was 100 to 500 nM.

Which IC50 does the source give for `CC(C)n1cnc2c(NCc3ccccc3-n3cccn3)nc(N3CCC(O)(Cn4cc(C(F)(F)F)cn4)CC3)nc21` [Compound I-35, 1-(6-((2-(1H-pyrazol-1-yl)benzyl)amino)-9-isopropyl-9H-purin-2-yl)-4-((4-(trifluoromethyl)-1H-pyrazol-1-yl)methyl)piperidin-4-ol] here?
Its IC50 is greater than 1000 nM.

How did the IC50 turn out when `CC(C)n1cnc2c(NCc3c(F)cccc3-n3cccn3)nc(N3CCC(N)CC3)nc21` [Compound I-24, 2-(4-aminopiperidin-1-yl)-N-(2-fluoro-6-(1H-pyrazol-1-yl)benzyl)-9-isopropyl-9H-purin-6-amine hydrochloride] was run?
The IC50 was less than 100 nM.

Which IC50 does the source give for `CC(C)n1cnc2c(NCc3ccccc3-n3cccn3)nc(NC3CCNCC3)nc21` [Compound I-30, N6-(2-(1H-pyrazol-1-yl)benzyl)-9-isopropyl-N2-(piperidin-4-yl)-9H-purine-2,6-diamine hydrochloride] here?
Its IC50 is 100 to 500 nM.

`CC(C)n1cnc2c(NCc3ccccc3-n3cccn3)nc(NC3CN4CCC3CC4)nc21` (centres unmarked) [Compound I-33, N6-(2-(1H-pyrazol-1-yl)benzyl)-9-isopropyl-N2-(quinuclidin-3-yl)-9H-purine-2,6-diamine] was tested. Which IC50 did it give?
The IC50 was 100 to 500 nM.

`CC(C)n1cnc2c(NCc3ccccc3-n3cccn3)nc(N3CCC(CN)C3)nc21` (centres unmarked) [Compound I-34, N-(2-(1H-pyrazol-1-yl)benzyl)-2-(3-(aminomethyl)pyrrolidin-1-yl)-9-isopropyl-9H-purin-6-amine] was tested. Which IC50 did it give?
Its IC50 is 100 to 500 nM.

Which IC50 does the source give for `NC1CCN(c2nc(NCc3ccccc3-n3cccn3)c3ncn(C4CCCC4)c3n2)CC1` [Compound I-25, N-(2-(1H-pyrazol-1-yl)benzyl)-2-(4-aminopiperidin-1-yl)-9-cyclopentyl-9H-purin-6-amine] here?
Its IC50 is less than 100 nM.

With `CC(C)c1n[nH]c2c(NCc3ccccc3-n3cccn3)nc(N3CCC(N)CC3)nc12` [II-1, N-(2-(1H-pyrazol-1-yl)benzyl)-5-(4-aminopiperidin-1-yl)-3-isopropyl-1H-pyrazolo[4,3-d]pyrimidin-7-amine hydrochloride] as the compound, how does the IC50 read?
Its IC50 is less than 100 nM.

Which IC50 does the source give for `CC(C)n1cnc2c(NCc3ccccc3-n3cccn3)nc(N3CC[C@H](N)C3)nc21` [Compound I-9, (S)—N-(2-(1H-pyrazol-1-yl)benzyl)-2-(3-aminopyrrolidin-1-yl)-9-isopropyl-9H-purin-6-amine] here?
Its IC50 is less than 100 nM.

With `CC(C)n1cnc2c(NCc3ccccc3-n3cccn3)nc(N3CCC[C@@H](N)C3)nc21` [Compound I-11, (R)—N-(2-(1H-pyrazol-1-yl)benzyl)-2-(3-aminopiperidin-1-yl)-9-isopropyl-9H-purin-6-amine] as the compound, how does the IC50 read?
The IC50 was less than 100 nM.

For `CC(C)n1cnc2c(NCc3ccccc3-n3cccn3)nc(N3CCC(C4CCNCC4)CC3)nc21` [Compound I-5, N-(2-(1H-pyrazol-1-yl)benzyl)-2-([4,4′-bipiperidin]-1-yl)-9-isopropyl-9H-purin-6-amine hydrochloride], which IC50 is on record?
Its IC50 is 100 to 500 nM.
